“Also recorded” adds a separate entry of the source. Read-outs that look alike come from different tables or passages of the source.
What was measured:
RWPE-1 = experiment: Cytotoxic activity test (MTT) on normal human prostate cell RWPE-1; format: cell-based
Description: (§1) All prostate cancer cells were cultured with a RPMI-1640 medium containing 10% calf serum, 100 units of penicillin per milliliter and 100 µg/mL of streptomycin in a constant temperature incubator containing 5% carbon dioxide at a saturated humidity of 37° C.
(§2) Cells in the logarithmic phase of growth were taken and cultured in 96-well plates for 24 hours (5×10^3 cells/well), then treated with different concentrations of the compounds to be tested, and incubated by MTT method for 4 hours. The supernatant was removed by centrifugation, the MTT crystals were dissolved by adding DMSO, and the absorbance value was measured by an enzyme-linked immunosorbent assay at a wavelength of 570 nm. The cytotoxic activity of the compounds to be tested on cancer cells was expressed as IC50.

prostate cancer cells = experiment: Inhibitory activity on a variety of prostate cancer cells (Table 1); format: cell-based, human; settings: structure-activity statements on Table 1
Description: as §1, §2

C4-2B = experiment: Cytotoxic activity test (MTT) on C4-2B prostate cancer cells; format: cell-based, human; settings: C4-2B cells
Description: as §1, §2

C4-2B/ENZR = experiment: Cytotoxic activity test (MTT) on C4-2B/ENZR prostate cancer cells; format: cell-based, human; settings: C4-2B/ENZR cells
Description: as §1, §2

LNcap = experiment: Cytotoxic activity test (MTT) on LNcap prostate cancer cells; format: cell-based, human; settings: read-out: Prostate cancer cells IC50 LNcap
Description: as §1, §2

Vcap-CRPC = experiment: Cytotoxic activity test (MTT) on Vcap-CRPC prostate cancer cells; format: cell-based, human; settings: read-out: Prostate cancer cells IC50 Vcap-CRPC
Description: as §1, §2

22RV1 = experiment: Cytotoxic activity test (MTT) on 22RV1 prostate cancer cells; format: cell-based, human
Description: as §1, §2

[1] = tested on: 22Rv1 human prostate cancer cells; experiment: Mice model for 22RV1 prostate cancer growth, oral administration experiment; format: in vivo, nod-scid male mice; settings: 22RV1 tumor-bearing mice
From the text: (§3) First, a large number of 22RV1 cells were amplified. To ensure the success rate of tumor-bearing, the cell state needs to be adjusted to the optimal state. When the number of the cells was sufficient, the cells were digested and flushed twice with PBS buffer to remove fetal bovine serum (FBS) from the medium to reduce immune rejection. The cells were adjusted to 3000*10^4/mL after counting by a hemocytometer. Then 22Rv1 human prostate cancer cells […] were subcutaneously injected into a 4-5 weeks old nod-scid male mice with severe immunodeficiency.
When the tumor grew to a volume of about 100 mm^3, the mice were randomly divided into 3 groups to make sure that the average tumor volume was the same. The mice in the dosing group were orally gavaged with 0.5 mg/kg and 2 mg/kg of Compound YH-52 per day, and the mice in the control group were given the same volume of normal saline containing DMSO. The body weight of the mice and the length and width of the tumors were measured and recorded every 3 days. The subcutaneous tumors were taken and then photographed at the end of the experiment. The tumor volumes were calculated according to the equation: volume=length×width^2×π/6, and then counted. The experimental results are shown in FIG. 2A, FIG. 2B and FIG. 2C.

[2] = tested on: 22Rv1 human prostate cancer cells; experiment: Mice model for 22RV1 prostate cancer growth, intraperitoneal injection in combination with enzalutamide; format: in vivo, nod-scid male mice
From the text: as §3
When the tumor grew to about 100 mm^3, the mice were randomly divided into 4 groups to make sure that the average tumor volume was the same. […] The body weight of the mice and the length and width of the tumor were measured and recorded every 3 days. The subcutaneous tumors were taken and then photographed at the end of the experiment. The tumor volumes were calculated according to the equation: volume=length×width^2×π/6, and then counted. The experimental results are shown in FIG. 3A, FIG. 3B, FIG. 3C and FIG. 3D.

[3] = normal human prostate cell RWPE-1, MTT, read-out: Normal cells RWPE-1 (IC50)
[4] = 22RV1 cells, MTT, read-out: Prostate cancer cells IC50 22RV1
[5] = Homo sapiens, RWPE-1, read-out: Normal cells RWPE-1 (IC50)
[6] = Homo sapiens, Vcap-CRPC cells, MTT
[7] = Homo sapiens, 22RV1 cells, MTT, read-out: Prostate cancer cells IC50 22RV1

SMILES | IC50 (RWPE-1; [3]) [nM] | inhibitory activity on prostate cancer cells (in words) (prostate cancer cells) | IC50 (C4-2B) [nM] | IC50 (C4-2B/ENZR) [nM] | IC50 (LNcap; LNcap cells, MTT) [nM] | IC50 (Vcap-CRPC; Vcap-CRPC cells, MTT) [nM] | IC50 (22RV1; [4]) [nM] | IC50 (C4-2B; Homo sapiens) [nM] | IC50 (C4-2B/ENZR; Homo sapiens) [nM] | also measured
C=C(C)[C@@]12OC3(c4ccccc4)O[C@@H]1[C@@H]1[C@@H]4O[C@]4(CO)[C@@H](O)[C@]4(O)C(=O)C(C)=C[C@H]4[C@@]1(O3)[C@H](C)[C@H]2OC(=O)c1ccccc1 [YH-11] | 13400 | most prominent | – | – | – | – | – | – | – | –
C=C(C)[C@@]12OC3(c4ccccc4)O[C@@H]1[C@@H]1[C@@H]4O[C@]4(COC(=O)CCCCCCCCCCCCCCC)[C@@H](O)[C@]4(O)C(=O)C(C)=C[C@H]4[C@@]1(O3)[C@H](C)[C@H]2OC(C)=O [YH-5] | 72800 | significant decrease in activity | 904 | 434 | 99.3 | 4660 | 44500 | – | – | –
C=C(C)[C@@]12OC3(c4ccccc4)O[C@@H]1[C@@H]1[C@@H]4O[C@]4(COC(C)=O)[C@@H](OC(C)=O)[C@]4(O)C(=O)C(C)=C[C@H]4[C@@]1(O3)[C@H](C)[C@H]2OC(=O)c1ccccc1 [YH-12] | – | significant decrease in activity | – | – | – | – | – | 557 | 1900 | –
C=C(C)[C@@]12OC3(/C=C/C=C/CCCCC)O[C@@H]1[C@@H]1[C@@H]4O[C@]4(CO)[C@@H](O)[C@]4(O)C(=O)C(C)=C[C@H]4[C@@]1(O3)[C@H](C)[C@H]2OC(=O)c1ccccc1 [YH-16] | 9670 | more cytotoxic | – | – | – | – | – | – | – | IC50 (LNcap; Homo sapiens, LNCaP): 5.43 nM; IC50 (Vcap-CRPC; Homo sapiens): 5.7 nM; IC50 (22RV1; Homo sapiens, 22Rv1, read-out: Prostate cancer cells IC50 22RV1): 33.2 nM
C=C(C)C1(O)C(O)C2C3OC3(CO)C(O)C3(O)C(=O)C(C)=CC3C2(O)C(C)C1OC(=O)c1ccccc1 (stereo not drawn) [YH-57] | 41100 | – | 2320 | 1870 | 4820 | 40800 | 46700 | – | – | –
C=C(C)[C@@]12OC3(c4ccccc4)O[C@@H]1[C@@H]1[C@@H]4O[C@]4(COC(=O)c4ccccc4)[C@@H](O)[C@]4(O)C(=O)C(C)=C[C@H]4[C@@]1(O3)[C@H](C)[C@H]2OC(C)=O [YH-9] | – | significant decrease in activity | – | – | – | – | – | 380 | 1460 | –
C=C(C)C1(O)C(OC(=O)c2ccccc2)C(C)C2(O)C(C(O)C(O)(CO)C(O)C3(O)C(=O)C(C)=CC32)C1OC(=O)c1ccccc1 (stereo not drawn) [YH-56] | 35100 | – | 4470 | 2690 | 13100 | 15400 | 47100 | – | – | –
C=C(C)[C@@]12OC3(/C=C/C=C/CCCCC)O[C@@H]1[C@@H]1[C@@H]4O[C@]4(COC(C)=O)[C@@H](O)[C@]4(O)C(=O)C(C)=C[C@H]4[C@@]1(O3)[C@H](C)[C@H]2OC(=O)c1ccccc1 [YH-19] | – | significant decrease in activity | 64.4 | 136 | – | – | – | – | – | –
C=C(C)[C@@]12OC3(/C=C/C=C/CCCCC)O[C@@H]1[C@@H]1[C@@H]4O[C@]4(COC(=O)c4ccccc4)[C@@H](O)[C@]4(O)C(=O)C(C)=C[C@H]4[C@@]1(O3)[C@H](C)[C@H]2OC(=O)c1ccccc1 [YH-20] | – | significant decrease in activity | 1580 | 5760 | – | – | – | – | – | –
C=C(C)[C@@]12OC3(c4ccccc4)O[C@@H]1[C@@H]1[C@H](O)[C@](Br)(CO)[C@@H](O)[C@]4(O)C(=O)C(C)=C[C@H]4[C@@]1(O3)[C@H](C)[C@H]2OC(=O)c1ccccc1 [YH-52] | – | most prominent; also recorded: enhanced activity | – | – | – | – | – | – | – | IC50 (RWPE-1; [5]): 53600 nM; toxicity for the normal human prostate cell RWPE-1 (RWPE-1; compared with prototype compound YH-11): significantly reduced toxicity; tumor growth in mice ([1]; oral gavage 0.5 mg/kg per day): significantly inhibit tumor growth; tumor growth in mice ([1]; oral gavage 2 mg/kg per day): significantly inhibit tumor growth; effect in combination with ENZ ([2]; intraperitoneal injection 0.1 mg/kg in combination with ENZ (10 mg/kg)): significant synergistic effect; efficacy compared to the positive drug enzalutamide (ENZ) ([2]; intraperitoneal injection 0.1 mg/kg per day, ENZ 10 mg/kg): greater efficacy
C=C(C)[C@@]12OC3(/C=C/C=C/CCCCC)O[C@@H]1[C@@H]1[C@@H]4O[C@]4(COC(=O)c4ccccc4)[C@@H](O)[C@]4(O)C(=O)C(C)=C[C@H]4[C@@]1(O3)[C@H](C)[C@H]2OC(C)=O [YH-25] | – | significant decrease in activity | – | – | – | – | – | 593 | 2300 | –
C=C(C)C12OC3(c4ccccc4)OC1C1C(O)C(O)(CO)C(O)C4(O)C(=O)C(C)=CC4C1(O3)C(C)C2OC(=O)c1ccccc1 (stereo not drawn) [YH-51] | 12300 | significantly reduced activity | 7.81 | 77.4 | 2.51 | 2.02 | 1770 | – | – | –
C=C(C)[C@@]1(O)[C@H](OC(=O)c2ccccc2)[C@@H]2[C@@H]3O[C@]3(CO)[C@@H](O)[C@]3(O)C(=O)C(C)=CC3[C@@]2(O)[C@H](C)[C@H]1OC(=O)c1ccccc1 (stereo partly drawn) [YH-60] | 4810 | – | – | – | – | – | – | 49.4 | 73.9 | IC50 (LNcap; Homo sapiens, LNcap cells, MTT): 2.85 nM; IC50 (Vcap-CRPC; [6]): 911 nM; IC50 (22RV1; [7]): 3890 nM
C=C(C)[C@@]12OC3(c4ccccc4)O[C@@H]1[C@@H]1[C@@H]4O[C@]4(CO)[C@@H](O)[C@]4(O)C(=O)C(C)=C[C@H]4[C@@]1(O3)[C@H](C)[C@H]2OC(C)=O [YH-6] | 44200 | – | – | – | – | – | – | 0.367 | 2.34 | IC50 (LNcap; Homo sapiens, LNcap cells, MTT): 3.89 nM; IC50 (Vcap-CRPC; [6]): 21.2 nM; IC50 (22RV1; [7]): 52.5 nM
C=C(C)[C@@]12OC3(/C=C/C=C/CCCCC)O[C@@H]1[C@@H]1[C@@H]4O[C@]4(CO)[C@@H](O)[C@]4(O)C(=O)C(C)=C[C@H]4[C@@]1(O3)[C@H](C)[C@H]2OC(C)=O [YH-22] | – | most prominent; also recorded: more cytotoxic | – | – | – | – | – | – | – | IC50 (RWPE-1; [5]): 5890 nM
C=C(C)[C@@]12OC3(C)O[C@@H]1[C@@H]1C=C(CO)C[C@]4(O)C(=O)C(C)=C[C@H]4[C@@]1(O3)[C@H](C)[C@H]2OC(=O)c1ccccc1 [YH-44] | 17400 | – | 193 | 641 | 74.8 | 306 | 4650 | – | – | –
